Columns and labels:
Type in all cases: cell-based
[1] = system: bacteria (Escherichia coli, Staphylococcus aureus, Pseudomonas aeruginosa, and Salmonella enterica); test: Antimicrobial performance of treated textiles against bacteria (Experimental Examples 1); details: 6% o.w.f. of the chemical; for efficiency for killing bacteria: cotton textile treated with one single agent; for efficiency in killing bacteria: polyester textile treated with one single agent
Procedure: (§1) All microbiological tests were performed with cultures of the bacteria Escherichia coli American Type Culture Collection (ATCC) 25922, Staphylococcus aureus ATCC 6538, Pseudomonas aeruginosa ATCC 15442, Salmonella enterica ATCC 10708, and of the fungi Candida albicans ATCC 10231, and Aspergillus Niger ATCC […].
(§2) With Experimental Examples 1, the effect of the application of different numbers of agents to the starting textile materials was studied. The agents applied to the cotton material were taken from the group of silver, PHMB, and propiconazole, which are the three most preferred antimicrobial agents for treating cellulosic textile materials. The agents applied to the polyester material were taken from the group of silver, propiconazole, and quaternary ammonium organosilane compounds, which are the three most preferred antimicrobial agents for treating synthetic textile materials.
(§3) The textiles were treated with (1) each of the agents from the respective group individually, (2) all three tuple combinations of agents from the respective groups, and (3) all three agents from the respective groups together. The total amount of the chemicals in all experiments was 6% o.w.f. Thus, where one single agent was applied to the textile, 6% o.w.f. of the respective chemical was used, where a combination of two agents was applied, 3% o.w.f. of each of the respective two chemicals was used, and where a combination of three agents was applied, 2% o.w.f. of each of the respective three chemicals was used.
(§4) The finishing process was as described above in the context of the working examples, but since no hydrophilic/stain release agent was applied, there was only one process cycle. The fabric was exhausted and then dried and cured in one single pass through the stenter, with the process parameters as described above.

[2] = system: fungi (Candida albicans and Aspergillus Niger); test: Antimicrobial performance of treated textiles against fungi (Experimental Examples 1); details: 6% o.w.f. of the chemical
Procedure: as §1, §2, §3, §4

[3] = system: microorganisms; test: Tests made by the inventor on alternative metals and azoles adhered to textiles (results not reproduced)
[4] = cotton textile treated with one single agent
[5] = polyester textile treated with one single agent

Compound | efficiency for killing bacteria [1] | efficiency in killing bacteria [1] | efficiency for killing fungi [2, 4] | efficiency for killing fungi [2, 5] | antimicrobial performance compared with zinc and copper [3]
propiconazole [reference compound] | not efficient | about as efficient against bacteria as silver and quaternary ammonium organosilane | efficient | works well | 
silver | about equally efficient | about equally efficient | perform poorly | not efficient | considerably higher than that of zinc, and even much higher than that of copper
CCCCCCCCCCCCCCCCCC[N+](C)(C)CCC[Si](OC)(OC)OC [Dimethyloctadecyl[3-(trimethoxysilyepropyl]ammonium chloride] |  | about equally efficient |  | not efficient | 

— US20190254282A1, “Non-Leaching Surface Sanitizer and Wipe with Improved Washability and/or Absorbency” (Livinguard AG, priority 2016, published 2019)
